Source: US4766119A, “Antispasmodic alkylated aminothioester derivatives” (United Pharmaceuticals, Inc., priority 1985, dated 1988)
Structures can show the parent of a compound that is named as a salt.

How the values were obtained:
[1] = tested on: bethanechol-contracted rabbit bladder strips; experiment: relaxation of bethanechol-contracted rabbit urinary bladder strip (organ bath); format: cell-based; conditions: 250 μM bethanechol; for inhibition at 100 µM / inhibition at 10 µM / inhibition at 1 µM / inhibition at 0.1 µM / inhibition at 0.01 µM: Oryctolagus cuniculus, maximal relaxation = pre-bethanechol tone, read-out: % of maximum relaxation
Method: The pharmacological actions of two anti-spasmodic compounds were studied in a rabbit urinary bladder strip preparation. In general, longitudinal strips were prepared from the base of freshly isolated rabbit bladders and were then suspended under near-physiological conditions in tissue baths. The strips were attached to force transducers and both contractile and relaxant activity was measured. To measure the relaxant effects on the anti-spasmodic compounds on previously-contracted bladder strips, the strips were initially exposed to the muscarinic receptor agonist bethanechol and allowed to reach a steady level of contractile activity for 20 minutes. At this point cumulative dose-responses to the various compounds were recorded. The rabbit abdomens were opened through a vertical midline incision. The bladder and urethra were dissected free of all surrounding tissues, removed and placed in aerated (95% O2 :5% CO2) Kreb's-bicarbonate buffer (pH: 7.4) of the following composition ([…]): KCl 4.6, CaCl2.2H2 O 2.5, KH2 PO4 1.2, MgSO4.7H2 O 1.2, NaCl 118.2, NaHCO3 24.8, and glucose 10.0. Longitudinal muscle strips were prepared from the bladder base (approximately 6 mm×4 mm) and suspended in an organ bath containing Kreb's buffer (37° C.) which was continuously aerated with O2 :CO2 (95%:5%). Tissues were allowed to equilibrate to a tension of 2 gm for sixty minutes during which time buffer was replaced at 20 minute intervals. The contractile and relaxant responses of the muscle strips were measured isometrically with a Statham UC3 force-displacement transducer and recorded on an Electronics for Medicine DR8 oscillographic recorder. Bethanechol was employed as the representative cholinergic agonist and, following equilibration, was added to the baths for a final concentration of 250 μM. The tissues were allowed 20 minute to achieve a maintained level of contraction in response to bethanechol and, at this point, cumulative dose-response measurements for two anti-spasmodic compounds were started at concentrations ranging from 10^-8 M to 10^-4 M. Solutions were added in volumes up to 100 μl and were prepared fresh each day by dissolving them in distilled: deionzed water. Responses were measured 5 minutes following any particular cumulative addition and were expressed as a percentage of maximal relaxation (e.g. maximal relaxation is the baseline or pre-bethanechol level of muscle tone).
Dose responses, measured from the standard bethanechol-contracted rabbit bladder strips, at various concentrations of 2-ethyl-butyrol-thio-S-(2-diethylaminoethyl)-ester [CH3 CH2)2 --CH--CO--S--(CH2)2 --N--(CH2 CH3)2.HCl], are presented in Table I:
Dose responses, measured from the standard bethanechol-contracted rabbit bladder strips, at various concentrations of 2-propyl-pentanoyl-thiol-S-(2-diethylaminoethyl)-ester.HCl [(CH3 CH2 CH2)2 --CH--CO--S--(CH2)2 --N--(CH2 CH3)2.HCl] are presented in Table II: […]

[2] = tested on: muscarinic receptors (rabbit lung tissue); format: binding, rabbit (New Zealand White); conditions: 0.1 nM [3H]QNB, 37° C., 60 min, pH 7.4
[3] = tested on: smooth muscle (gastrointestinal tract, biliary tract, ureter and uterus); conditions: cited from earlier work
[4] = tested on: salivary and sweat glands, GI glands, the eye or the cardiovascular system; conditions: cited from earlier work

Row | Compound | Decrease in force of contraction of rabbit bladder strip ([1]; 10^-4 moles/liter) [gm] | Increase in length of rabbit bladder strip ([1]; 10^-4 moles/liter) [cm] | Decrease in force of contraction of rabbit bladder strip ([1]; 10^-5 moles/liter) [gm] | Increase in length of rabbit bladder strip ([1]; 10^-5 moles/liter) [cm] | Decrease in force of contraction of rabbit bladder strip ([1]; 10^-6 moles/liter) [gm] | Increase in length of rabbit bladder strip ([1]; 10^-6 moles/liter) [cm] | Decrease in force of contraction of rabbit bladder strip ([1]; 10^-7 moles/liter) [gm] | Increase in length of rabbit bladder strip ([1]; 10^-7 moles/liter) [cm] | Decrease in force of contraction of rabbit bladder strip ([1]; 10^-8 moles/liter) [gm] | Increase in length of rabbit bladder strip ([1]; 10^-8 moles/liter) [cm] | inhibition at 100 µM ([1]; 10^-4 moles/liter) [%] | inhibition at 10 µM ([1]; 10^-5 moles/liter) [%] | inhibition at 1 µM ([1]; 10^-6 moles/liter) [%] | inhibition at 0.1 µM ([1]; 10^-7 moles/liter) [%] | inhibition at 0.01 µM ([1]; 10^-8 moles/liter) [%] | % inhibition of 3H[QNB] binding (at a concentration of 1.0 × 10^-5 M) [2] [%] | decrease of spasm [3] | characteristic atropinic side effects [4]
1 | CCC(CC)C(=O)SCCN(CC)CC [2-ethyl-butyryl-thio-S-(2-diethylaminoethyl)ester.HCl] | 0.54 | 1.3 | 0.29 | 0.7 | 0.25 | 0.6 | 0.17 | 0.4 | 0.13 | 0.3 | 37 | 20 | 17.1 | 11.4 | 8.6 | 64 | – | –
2 | CCCC(CCC)C(=O)SCCN(CC)CC [2-propyl-pentanoyl-thio-S-(2-diethylaminoethyl)-ester.HCl] | 0.81 | 2.9 | 0.31 | 1.1 | 0.0 | 0.0 | 0.0 | 0.0 | 0.0 | 0.0 | 100 | 100 | 0 | 0 | 0 | 95 | – | –
3 | CCN(CC)CCSC(=O)C(c1ccccc1)c1ccccc1 [Thiphenamil hydrochloride] | – | – | – | – | – | – | – | – | – | – | – | – | – | – | – | – | decrease spasm of the gastrointestinal tract, biliary tract, ureter and uterus | without producing characteristic atropinic side effects on salivary and sweat glands, GI glands, the eye or the cardiovascular system
